In US9273058B2 (BRISTOL-MYERS SQUIBB COMPANY, priority 2013, dated 2016):
Like-named read-outs stand apart in the source and are kept apart here.

How the values were obtained:
CK1ε = CK1ε (Homo sapiens, UniProt P49674); assay: CK1ε kinase assay (Caliper LabChip electrophoretic separation of fluoresceinated peptide substrate and product); type: biochemical; conditions: 200 pM CK1ε, 50 μM ATP, 1.5 μM peptide, 22 hours at room temperature
How it was run: (§1)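 Each reaction was incubated 22 hours at room temperature and terminated with EDTA. Read-out was microfluidic electrophoretic separation of fluoresceinated substrate and phospho-product.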

CK1δ = CK1δ (Homo sapiens, UniProt P48730); assay: CK1δ kinase assay (Caliper LabChip electrophoretic separation of fluoresceinated peptide substrate and product); type: biochemical; conditions: 200 pM CK1δ, 50 μM ATP, 1.5 μM peptide, 22 hours at room temperature
Chain of CK1δ (P48730 whole entry): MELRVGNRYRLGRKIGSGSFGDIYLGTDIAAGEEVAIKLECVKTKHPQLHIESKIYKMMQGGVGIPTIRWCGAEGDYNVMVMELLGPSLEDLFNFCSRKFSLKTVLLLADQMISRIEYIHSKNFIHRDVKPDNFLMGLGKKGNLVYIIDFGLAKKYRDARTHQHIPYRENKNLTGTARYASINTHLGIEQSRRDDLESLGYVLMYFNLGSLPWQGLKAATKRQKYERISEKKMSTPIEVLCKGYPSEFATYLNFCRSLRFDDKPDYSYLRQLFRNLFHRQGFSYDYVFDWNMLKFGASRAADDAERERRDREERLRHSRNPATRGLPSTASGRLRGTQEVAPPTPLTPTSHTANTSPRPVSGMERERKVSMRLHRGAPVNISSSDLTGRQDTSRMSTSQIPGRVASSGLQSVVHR
How it was run: as §1

Chain of CK1ε (P49674 whole entry): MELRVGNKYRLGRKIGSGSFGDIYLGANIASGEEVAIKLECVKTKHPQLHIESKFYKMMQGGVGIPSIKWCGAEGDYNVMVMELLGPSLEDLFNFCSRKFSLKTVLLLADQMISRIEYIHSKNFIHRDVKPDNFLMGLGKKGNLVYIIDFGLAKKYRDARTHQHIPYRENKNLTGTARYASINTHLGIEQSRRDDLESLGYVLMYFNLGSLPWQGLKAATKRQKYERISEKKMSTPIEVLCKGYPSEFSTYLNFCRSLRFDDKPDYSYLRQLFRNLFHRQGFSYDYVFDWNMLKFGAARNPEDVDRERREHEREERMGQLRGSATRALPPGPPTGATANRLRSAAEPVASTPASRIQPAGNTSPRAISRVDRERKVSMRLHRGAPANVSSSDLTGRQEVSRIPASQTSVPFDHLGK

| SMILES | IC50 (CK1ε; read-out: CK1ε IC50 range) | IC50 (CK1δ; read-out: CK1δ IC50 range) | IC50 (CK1ε; read-out: CK1ε) | IC50 (CK1δ; read-out: CK1δ) |
| --- | --- | --- | --- | --- |
| NC(=O)c1c(-c2ccc(F)c(Cl)c2)nn2c1CN(C(=O)NC13CCC(C(F)F)(CC1)C3)CC2 [Compound A139, 2-(3-Chloro-4-fluorophenyl)-N^5-(4-(difluoromethyl)bicyclo[2.2.1]heptan-1-yl)-6,7-dihydropyrazolo[1,5-a]pyrazine-3,5(4H)-dicarboxamide] | 0.01 to 10 nM | 0.01 to 10 nM | – | – |
| N#Cc1ccc(NC(=O)N2CCn3nc(-c4cccc(Cl)c4)c(C(N)=O)c3C2)cc1 [Compound 166, 2-(3-Chlorophenyl)-N^5-(4-cyanophenyl)-6,7-dihydropyrazolo[1,5-a]pyrazine-3,5(4H)-dicarboxamide] | 0.01 to 10 nM | 0.01 to 10 nM | 0.3 nM | 0.3 nM |
| CC(C)(C)NC(=O)N1CCn2nc(-c3cccc(C(=O)O)c3)c(C(N)=O)c2C1 [Compound 122, 3-(5-(tert-Butylcarbamoyl)-3-carbamoyl-4,5,6,7-tetrahydropyrazolo[1,5-a]pyrazin-2-yl)benzoic acid] | 100 to 2000 nM | 100 to 2000 nM | – | – |
| NC(=O)c1c(-c2cccc(Cl)c2)nn2c1CN(C(=O)NC13CCC(CF)(CC1)CC3)CC2 [Compound A78, 2-(3-Chlorophenyl)-N^5-(4-(fluoromethyl)bicyclo[2.2.2]octan-1-yl)-6,7-dihydropyrazolo[1,5-a]pyrazine-3,5(4H)-dicarboxamide] | 0.01 to 10 nM | 0.01 to 10 nM | – | – |
| NC(=O)c1c(-c2cccc(Cl)c2)nn2c1CN(C(=O)N[C@H]1C[C@@H](F)C1)CC2 [Compound 176, 2-(3-Chlorophenyl)-N^5-((1s,3s)-3-fluorocyclobutyl)-6,7-dihydropyrazolo[1,5-a] pyrazine-3,5(4H)-dicarboxamide] | 0.01 to 10 nM | 0.01 to 10 nM | – | – |
| N#Cc1ccc(C23CCC(NC(=O)N4CCn5nc(-c6ccc(Cl)c(Cl)c6)c(C(N)=O)c5C4)(CC2)CC3)cc1 [Compound A90, N^5-(4-(4-Cyanophenyl)bicyclo[2.2.2]octan-1-yl)-2-(3,4-dichlorophenyl)-6,7-dihydropyrazolo[1,5-a]pyrazine-3,5(4H)-dicarboxamide] | 0.01 to 10 nM | 0.01 to 10 nM | – | – |
| NC(=O)c1c(-c2ccc(F)c(Cl)c2)nn2c1CN(C(=O)NC(CF)(CF)CF)CC2 [Compound A49, 2-(3-Chloro-4-fluorophenyl)-N^5-(1,3-difluoro-2-(fluoromethyl)propan-2-yl)-6,7-dihydropyrazolo[1,5-a] pyrazine-3,5(4H)-dicarboxamide] | 0.01 to 10 nM | 0.01 to 10 nM | – | – |
| CC1CN(C(=O)NC(C)(C)C)Cc2c(C(N)=O)c(-c3cccc(F)c3)nn21 (single isomer, unassigned) [Compound A108, N^5-(tert-Butyl)-2-(3-fluorophenyl)-7-methyl-6,7-dihydropyrazolo[1,5-a]pyrazine-3,5(4H)-dicarboxamide] | 10 to 100 nM | 10 to 100 nM | – | – |
| NC(=O)c1c(-c2cccc(F)c2)nn2c1CN(C(=O)Nc1ccc(F)cc1F)CC2 [Compound 30, N^5-(2,4-Difluorophenyl)-2-(3-fluorophenyl)-6,7-dihydropyrazolo[1,5-a]pyrazine-3,5(4H)-dicarboxamide] | 10 to 100 nM | 10 to 100 nM | – | – |
| NC(=O)c1c(-c2ccc(F)c(Cl)c2)nn2c1CN(C(=O)NC1(c3ccc(F)cc3)CC(F)(F)C1)CC2 [Compound 308, 2-(3-Chloro-4-fluorophenyl)-N^5-(3,3-difluoro-1-(4-fluorophenyl)cyclobutyl)-6,7-dihydropyrazolo[1,5-a]pyrazine-3,5(4H)-dicarboxamide] | 0.01 to 10 nM | 0.01 to 10 nM | – | – |
| NC(=O)c1c(-c2ccc(F)c(Cl)c2)nn2c1CN(C(=O)N[C@H]1C[C@@H](c3ccc(F)cc3)C1)CC2 [Compound 276, 2-(3-Chloro-4-fluorophenyl)-N^5-((1s,3s)-3-(4-fluorophenyl)cyclobutyl)-6,7-dihydropyrazolo[1,5-a]pyrazine-3,5(4H)-dicarboxamide] | 0.01 to 10 nM | 0.01 to 10 nM | – | – |
| CC1(NC(=O)N2Cc3c(C(N)=O)c(-c4ccc(F)c(Cl)c4)nn3C(CF)C2)CC(F)(F)C1 (stereo not shown) [Compound A9, 2-(3-Chloro-4-fluorophenyl)-N^5-(3,3-difluoro-1-methylcyclobutyl)-7-(fluoromethyl)-6,7-dihydropyrazolo[1,5-a]pyrazine-3,5(4H)-dicarboxamide] | 0.01 to 10 nM | 0.01 to 10 nM | – | – |
| CC(C)(C)NC(=O)N1CCn2nc(-c3ccc(F)cc3F)c(C(N)=O)c2C1 [Compound 124, N^5-(tert-Butyl)-2-(2,4-difluorophenyl)-6,7-dihydropyrazolo[1,5-a] pyrazine-3,5(4H)-dicarboxamide] | – | – | 118 nM | 172 nM |
| NC(=O)c1c(-c2cccc(F)c2)nn2c1CN(C(=O)Nc1cccc(F)c1F)CC2 [Compound 28, N^5-(2,3-Difluorophenyl)-2-(3-fluorophenyl)-6,7-dihydropyrazolo[1,5-a]pyrazine-3,5(4H)-dicarboxamide] | 10 to 100 nM | 10 to 100 nM | – | – |
| NC(=O)c1c(-c2cccc(F)c2)nn2c1CN(C(=O)NC13CC(C1)C3)CC2 [Compound 24, N^5-(Bicyclo[1.1.1]pentan-1-yl)-2-(3-fluorophenyl)-6,7-dihydropyrazolo[1,5-a]pyrazine-3,5(4H)-dicarboxamide] | 10 to 100 nM | 10 to 100 nM | – | – |
| COC12CCC(NC(=O)N3CCn4nc(-c5cccc(Cl)c5)c(C(N)=O)c4C3)(CC1)CC2 [Compound A80, 2-(3-Chlorophenyl)-N^5-(4-methoxybicyclo[2.2.2]octan-1-yl)-6,7-dihydropyrazolo[1,5-a]pyrazine-3,5(4H)-dicarboxamide] | 0.01 to 10 nM | 0.01 to 10 nM | – | – |
| CC(C)(C)NC(=O)N1Cc2c(C(N)=O)c(-c3ccc(F)c(Cl)c3)nn2C2(C1)CC(F)(F)C2 [Compound A39, N^5′-(tert-Butyl)-2′-(3-chloro-4-fluorophenyl)-3,3-difluoro-4′H-spiro[cyclobutane-1,7′-pyrazolo[1,5-a]pyrazine]-3′,5′(6′H)-dicarboxamide] | 0.01 to 10 nM | 0.01 to 10 nM | – | – |
| CC1(NC(=O)N2CCn3nc(-c4cccc(Cl)c4)c(C(N)=O)c3C2)CC(F)(F)C1 [Compound 299, 2-(3-Chlorophenyl)-N^5-(3,3-difluoro-1-methylcyclobutyl)-6,7-dihydropyrazolo[1,5-a] pyrazine-3,5(4H)-dicarboxamide] | 0.01 to 10 nM | 0.01 to 10 nM | – | – |
| C[C@H]1CN(C(=O)NC2CC(F)(F)C2)Cc2c(C(N)=O)c(-c3ccc(Cl)c(Cl)c3)nn21 [Compound A36, (S)-2-(3,4-Dichlorophenyl)-N^5-(3,3-difluorocyclobutyl)-7-methyl-6,7-dihydropyrazolo[1,5-c]pyrazine-3,5(4H)-dicarboxamide] | 0.01 to 10 nM | 0.01 to 10 nM | – | – |
| NC(=O)c1c(-c2ccc(Cl)c(Cl)c2)nn2c1CN(C(=O)NC1CC(C(F)F)C1)CC2 (stereo not shown) [Compound 254, 2-(3,4-Dichlorophenyl)-N^5-(3-(difluoromethyl)cyclobutyl)-6,7-dihydropyrazolo[1,5-a]pyrazine-3,5(4H)-dicarboxamide] | 0.01 to 10 nM | 0.01 to 10 nM | – | – |
| CC(C)(C)NC(=O)N1CCn2nc(-c3cccc(OC(F)(F)F)c3)c(C(N)=O)c2C1 [Compound 138, N^5-(tert-Butyl)-2-(3-(trifluoromethoxy)phenyl)-6,7-dihydropyrazolo[1,5-a] pyrazine-3,5(4H)-dicarboxamide] | 100 to 2000 nM | 100 to 2000 nM | – | – |
| NC(=O)c1c(-c2cccc(Cl)c2)nn2c1CN(C(=O)NC13C4C5C6C4C1C6C53)CC2 (stereo not shown) [Compound A86, N^5-(Cuban-1-yl)-2-(3-chlorophenyl)-6,7-dihydropyrazolo[1,5-a]pyrazine-3,5(4H)-dicarboxamide] | 0.01 to 10 nM | 0.01 to 10 nM | – | – |
| CC1CC(NC(=O)N2CCn3nc(-c4cccc(Cl)c4)c(C(N)=O)c3C2)C1 (single isomer, unassigned) [Compound 250, 2-(3-Chlorophenyl)-N^5-(3-methylcyclobutyl)-6,7-dihydropyrazolo[1,5-a]pyrazine-3,5(4H)-dicarboxamide] | 0.01 to 10 nM | 0.01 to 10 nM | – | – |
| NC(=O)c1c(-c2cc(Cl)cc(Cl)c2)nn2c1CN(C(=O)NC1CC(F)(F)C1)CC2 [Compound 293, 2-(3,5-Dichlorophenyl)-N^5-(3,3-difluorocyclobutyl)-6,7-dihydropyrazolo[1,5-a] pyrazine-3,5(4H)-dicarboxamide] | 0.01 to 10 nM | 0.01 to 10 nM | – | – |
| NC(=O)c1c(-c2cccc(F)c2)nn2c1CN(C(=O)Nc1ccc(O)nc1)CC2 [Compound 88, 2-(3-Fluorophenyl)-N^5-(6-hydroxypyridin-3-yl)-6,7-dihydropyrazolo[1,5-a]pyrazine-3,5(4H)-dicarboxamide] | 10 to 100 nM | 10 to 100 nM | – | – |
| CC(C)(NC(=O)N1CCn2nc(-c3cccc(Cl)c3)c(C(N)=O)c2C1)C1CCC(F)(F)CC1 [Compound 233, 2-(3-Chlorophenyl)-N^5-(2-(4,4-difluorocyclohexyl)propan-2-yl)-6,7-dihydropyrazolo[1,5-a] pyrazine-3,5(4H)-dicarboxamide] | 0.01 to 10 nM | 0.01 to 10 nM | – | – |
| NC(=O)c1c(-c2ccc(F)c(Cl)c2)nn2c1CN(C(=O)NC13CCC(c4ccc(F)cc4)(CC1)CC3)CC2 [Compound A52, 2-(3-Chloro-4-fluorophenyl)-N^5-(4-(4-fluorophenyl)bicyclo[2.2.2]octan-1-yl)-6,7-dihydropyrazolo[1,5-a]pyrazine-3,5(4H)-dicarboxamide] | 0.01 to 10 nM | 0.01 to 10 nM | – | – |
| CC1(NC(=O)N2CCn3nc(-c4ccc(F)c(Cl)c4)c(C(N)=O)c3C2)CC2(CC2)C1 [Compound 317, 2-(3-Chloro-4-fluorophenyl)-N^5-(5-methylspiro[2.3]hexan-5-yl)-6,7-dihydropyrazolo[1,5-a]pyrazine-3,5(4H)-dicarboxamide] | 0.01 to 10 nM | 0.01 to 10 nM | – | – |
